Assay results from paper PMC5218480 (PLoS ONE, 2017).

Test system: MV-4-11 cells
Assay: Gene expression microarray analysis (Affymetrix PrimeView) and GSEA
Format: cell-based, human
Parameters: RFU PODN (11730768_x_at) / Fold change /veh PODN (11730768_x_at) / RFU LINC00158 (11744669_a_at) / Fold change /veh LINC00158 (11744669_a_at) / RFU DUSP10 (11751237_a_at) / Fold change /veh DUSP10 (11751237_a_at) / RFU ID3 (11757404_x_at) / Fold change /veh ID3 (11757404_x_at) / RFU PLEKHG5 (11737974_s_at) / Fold change /veh PLEKHG5 (11737974_s_at) / RFU LRRC4B (11730491_at) / Fold change /veh LRRC4B (11730491_at) / RFU GIMAP4 (11747438_a_at) / Fold change /veh GIMAP4 (11747438_a_at) / RFU KRT8 (11758183_x_at) / Fold change /veh KRT8 (11758183_x_at) / RFU CNN1 (11734310_a_at) / Fold change /veh CNN1 (11734310_a_at) / RFU VPS37D (11726825_at) / Fold change /veh VPS37D (11726825_at) / RFU C10orf10 (11716522_x_at) / Fold change /veh C10orf10 (11716522_x_at) / RFU KIR2DL2 /// KIR2DL4 /// KIR2DL5A /// KIR2DL5B /// KIR2DS1 /// KIR2DS2 /// KIR2DS3 /// KIR2DS4 /// KIR3DL3 /// KIR3DL3 /// KIR3DS1 (11738374_at) / Fold change /veh KIR2DL2 /// KIR2DL4 /// KIR2DL5A /// KIR2DL5B /// KIR2DS1 /// KIR2DS2 /// KIR2DS3 /// KIR2DS4 /// KIR3DL3 /// KIR3DL3 /// KIR3DS1 (11738374_at) / RFU C1QL1 (11718748_at) / Fold change /veh C1QL1 (11718748_at) / RFU TMPRSS4 (11747572_a_at) / Fold change /veh TMPRSS4 (11747572_a_at) / RFU HAMP (11756126_x_at) / Fold change /veh HAMP (11756126_x_at) / RFU RNFT2 (11725882_a_at) / Fold change /veh RNFT2 (11725882_a_at) / RFU NR4A2 (11747474_a_at) / Fold change /veh NR4A2 (11747474_a_at) / RFU ABCC12 (11746883_a_at) / Fold change /veh ABCC12 (11746883_a_at) / RFU TMEM136 (11760407_x_at) / Fold change /veh TMEM136 (11760407_x_at) / RFU CLDN22 /// WWC2 (11732394_at) / Fold change /veh CLDN22 /// WWC2 (11732394_at) / RFU HLA-DPB1 (11760878_x_at) / Fold change /veh HLA-DPB1 (11760878_x_at) / RFU SPINT1 (11716480_a_at) / Fold change /veh SPINT1 (11716480_a_at) / RFU GAP43 (11754022_s_at) / Fold change /veh GAP43 (11754022_s_at) / RFU A4GNT (11735810_at) / Fold change /veh A4GNT (11735810_at) / RFU PRB3 (11715151_x_at) / Fold change /veh PRB3 (11715151_x_at) / RFU TUBB4B (11761932_at) / Fold change /veh TUBB4B (11761932_at) / RFU CAPN14 (11732068_a_at) / Fold change /veh CAPN14 (11732068_a_at) / RFU TMCC2 (11721928_a_at) / Fold change /veh TMCC2 (11721928_a_at) / RFU IRGQ (11745062_a_at) / Fold change /veh IRGQ (11745062_a_at) / RFU FAM174B (11720279_a_at) / Fold change /veh FAM174B (11720279_a_at) / RFU TMPRSS4 (11748680_a_at) / Fold change /veh TMPRSS4 (11748680_a_at) / RFU FAM212B (11763350_a_at) / Fold change /veh FAM212B (11763350_a_at) / RFU PLEKHG5 (11743358_a_at) / Fold change /veh PLEKHG5 (11743358_a_at) / RFU ZSCAN30 (11745921_a_at) / Fold change /veh ZSCAN30 (11745921_a_at) / RFU CMKLR1 (11741424_a_at) / Fold change /veh CMKLR1 (11741424_a_at) / RFU LOC101060620 /// MAPK8IP1 (11723275_at) / Fold change /veh LOC101060620 /// MAPK8IP1 (11723275_at) / RFU SPTSSB (11747773_x_at) / Fold change /veh SPTSSB (11747773_x_at) / RFU PRSS12 (11739890_at) / Fold change /veh PRSS12 (11739890_at) / RFU BIN1 (11741810_x_at) / Fold change /veh BIN1 (11741810_x_at) / RFU WNT11 (11732464_a_at) / Fold change /veh WNT11 (11732464_a_at) / RFU C10orf10 (11716521_a_at) / Fold change /veh C10orf10 (11716521_a_at) / RFU C5orf56 (11738089_at) / Fold change /veh C5orf56 (11738089_at) / RFU CYB561 (11721691_x_at) / Fold change /veh CYB561 (11721691_x_at) / RFU ANKRD19P (11752326_a_at) / Fold change /veh ANKRD19P (11752326_a_at) / RFU OR2T12 /// OR2T33 /// OR2T8 (11738714_s_at) / Fold change /veh OR2T12 /// OR2T33 /// OR2T8 (11738714_s_at) / RFU VCAN (11748164_a_at) / Fold change /veh VCAN (11748164_a_at) / RFU JSRP1 (11732532_at) / Fold change /veh JSRP1 (11732532_at) / RFU KRTAP10-11 (11738290_x_at) / Fold change /veh KRTAP10-11 (11738290_x_at) / RFU MYO3A (11730013_a_at) / Fold change /veh MYO3A (11730013_a_at) / RFU EBF3 (11725865_a_at) / Fold change /veh EBF3 (11725865_a_at) / RFU CAMK2N1 (11719241_x_at) / Fold change /veh CAMK2N1 (11719241_x_at) / RFU C5orf56 (11738088_a_at) / Fold change /veh C5orf56 (11738088_a_at) / RFU OLFML3 (11715873_a_at) / Fold change /veh OLFML3 (11715873_a_at) / RFU LOC100653217 /// NTM (11731650_a_at) / Fold change /veh LOC100653217 /// NTM (11731650_a_at) / RFU MAPK11 (11762145_a_at) / Fold change /veh MAPK11 (11762145_a_at) / RFU FIZ1 (11724087_x_at) / Fold change /veh FIZ1 (11724087_x_at) / RFU OASL (11726364_x_at) / Fold change /veh OASL (11726364_x_at) / RFU SOX15 (11748057_x_at) / Fold change /veh SOX15 (11748057_x_at) / RFU CD79A (11719716_a_at) / Fold change /veh CD79A (11719716_a_at) / RFU HIST1H1D (11736915_at) / Fold change /veh HIST1H1D (11736915_at) / RFU CASKIN2 (11723855_a_at) / Fold change /veh CASKIN2 (11723855_a_at) / RFU LOC730098 (11760151_x_at) / Fold change /veh LOC730098 (11760151_x_at) / RFU OR4N2 (11742367_at) / Fold change /veh OR4N2 (11742367_at) / RFU PRRT2 (11749266_a_at) / Fold change /veh PRRT2 (11749266_a_at) / RFU SNX32 (11753110_a_at) / Fold change /veh SNX32 (11753110_a_at) / RFU CDHR5 (11726645_a_at) / Fold change /veh CDHR5 (11726645_a_at) / RFU RCAN1 (11760418_a_at) / Fold change /veh RCAN1 (11760418_a_at) / RFU FAM167A (11723789_a_at) / Fold change /veh FAM167A (11723789_a_at) / RFU FAM26E (11764081_at) / Fold change /veh FAM26E (11764081_at) / RFU ISYNA1 (11749810_s_at) / Fold change /veh ISYNA1 (11749810_s_at) / RFU ACY1 (11761880_at) / Fold change /veh ACY1 (11761880_at) / RFU 11764098_at / Fold change /veh 11764098_at / RFU SAMD14 (11745864_x_at) / Fold change /veh SAMD14 (11745864_x_at) / RFU NPB (11741838_a_at) / Fold change /veh NPB (11741838_a_at) / RFU TMPRSS6 (11731388_a_at) / Fold change /veh TMPRSS6 (11731388_a_at) / RFU KRTAP10-2 (11738614_at) / Fold change /veh KRTAP10-2 (11738614_at) / RFU ARHGAP8 /// PRR5-ARHGAP8 (11727945_x_at) / Fold change /veh ARHGAP8 /// PRR5-ARHGAP8 (11727945_x_at) / RFU KRTAP5-7 /// NADSYN1 (11734609_at) / Fold change /veh KRTAP5-7 /// NADSYN1 (11734609_at) / RFU RASL12 (11751679_a_at) / Fold change /veh RASL12 (11751679_a_at) / RFU CDKN2B (11736163_a_at) / Fold change /veh CDKN2B (11736163_a_at) / RFU PRF1 (11729649_at) / Fold change /veh PRF1 (11729649_at) / RFU, ZNF638 /// ZNF638-IT1 / Fold change vs veh, ZNF638 /// ZNF638-IT1 / RFU, PANK3 / Fold change vs veh, PANK3 / RFU, SH3YL1 / Fold change vs veh, SH3YL1 / RFU, ZEB2 / Fold change vs veh, ZEB2 / RFU, NRIP1 / Fold change vs veh, NRIP1 / RFU, PTTG1IP / Fold change vs veh, PTTG1IP / RFU, CAPN2 / Fold change vs veh, CAPN2 / RFU, MED14 / Fold change vs veh, MED14 / RFU, SNORA58 / Fold change vs veh, SNORA58 / RFU, C1orf63 / Fold change vs veh, C1orf63 / RFU, LRRFIP1 / Fold change vs veh, LRRFIP1 / RFU, NDUFAF7 / Fold change vs veh, NDUFAF7 / RFU, SLC12A2 / Fold change vs veh, SLC12A2 / RFU, IBTK / Fold change vs veh, IBTK / RFU, ESF1 / Fold change vs veh, ESF1 / Fold change vs veh, TMEM50B / RFU, TAOK1 / Fold change vs veh, TAOK1 / RFU, ACBD3 / Fold change vs veh, ACBD3 / RFU, TMA16 / Fold change vs veh, TMA16 / RFU, RWDD3 / Fold change vs veh, RWDD3 / RFU, BCAT1 / Fold change vs veh, BCAT1 / RFU, EDEM3 / Fold change vs veh, EDEM3 / RFU, TMEM33 / Fold change vs veh, TMEM33 / RFU, WDR75 / Fold change vs veh, WDR75 / RFU, AHCTF1 / Fold change vs veh, AHCTF1 / RFU, TFRC / Fold change vs veh, TFRC / RFU, ZDHHC17 / Fold change vs veh, ZDHHC17 / RFU, NOM1 / Fold change vs veh, NOM1 / RFU, ARL8B / Fold change vs veh, ARL8B / RFU, ZBTB11 / Fold change vs veh, ZBTB11 / RFU, TAMM41 / Fold change vs veh, TAMM41 / RFU, KIAA1704 /// LOC100996395 / Fold change vs veh, KIAA1704 /// LOC100996395 / RFU, ING1 / Fold change vs veh, ING1 / RFU, TRMT61B / Fold change vs veh, TRMT61B / RFU, FUBP3 / Fold change vs veh, FUBP3 / RFU, TP53 / Fold change vs veh, TP53 / RFU, TNKS2 / Fold change vs veh, TNKS2 / RFU, ZFP14 / Fold change vs veh, ZFP14 / RFU, ACTR2 / Fold change vs veh, ACTR2 / RFU, PPP3R1 / Fold change vs veh, PPP3R1 / RFU, PIK3R1 / Fold change vs veh, PIK3R1 / RFU, HNRNPA1 / Fold change vs veh, HNRNPA1 / RFU, RNF170 / Fold change vs veh, RNF170 / RFU, ZNF28 / Fold change vs veh, ZNF28 / RFU, RNGTT / Fold change vs veh, RNGTT / RFU, OGT / Fold change vs veh, OGT / RFU, BRD1 / Fold change vs veh, BRD1 / RFU, MARS / Fold change vs veh, MARS / RFU, ZNF655 / Fold change vs veh, ZNF655 / RFU, FAHD1 / Fold change vs veh, FAHD1 / RFU, BDP1 / Fold change vs veh, BDP1 / RFU, LRRCC1 / Fold change vs veh, LRRCC1 / RFU, ARID1A / Fold change vs veh, ARID1A / RFU, ZNF146 / Fold change vs veh, ZNF146 / RFU, ZNF330 / Fold change vs veh, ZNF330 / RFU, GPN3 / Fold change vs veh, GPN3 / RFU, C9orf123 / Fold change vs veh, C9orf123 / RFU, N4BP2L2 / Fold change vs veh, N4BP2L2 / RFU, ARFIP1 / Fold change vs veh, ARFIP1 / RFU, FAM179B / Fold change vs veh, FAM179B / RFU, BCL10 / Fold change vs veh, BCL10 / RFU, UHRF1BP1L / Fold change vs veh, UHRF1BP1L / RFU, BET1 / Fold change vs veh, BET1 / RFU, CNOT2 / Fold change vs veh, CNOT2 / RFU, ZNF268 / Fold change vs veh, ZNF268 / Fold change vs veh, ZNF507 / RFU, DGCR2 / Fold change vs veh, DGCR2 / RFU, WDSUB1 / Fold change vs veh, WDSUB1 / Fold change vs veh, HSP90B1 /// MIR3652 / RFU, ADSS / Fold change vs veh, ADSS / RFU, GK / Fold change vs veh, GK / RFU, ZNF148 / Fold change vs veh, ZNF148 / RFU, TAF9 / Fold change vs veh, TAF9 / RFU, SLC1A5 / Fold change vs veh, SLC1A5 / RFU, SLMO2 / Fold change vs veh, SLMO2 / RFU, ABCC4 / Fold change vs veh, ABCC4 / RFU, LOC101060439 /// RAP1B / Fold change vs veh, LOC101060439 /// RAP1B / RFU, RFX7 / Fold change vs veh, RFX7 / RFU, GTPBP10 / Fold change vs veh, GTPBP10 / RFU, CNEP1R1 / Fold change vs veh, CNEP1R1 / RFU, BIVM-ERCC5 /// ERCC5 / Fold change vs veh, BIVM-ERCC5 /// ERCC5 / RFU, ILF3 / Fold change vs veh, ILF3 / RFU 11762660_at / Fold change /veh 11762660_at / RFU VCAN (11757783_s_at) / Fold change /veh VCAN (11757783_s_at) / RFU DDX43 (11728927_at) / Fold change /veh DDX43 (11728927_at) / RFU KRT8 (11758188_x_at) / Fold change /veh KRT8 (11758188_x_at) / RFU NKD1 (11759106_at) / Fold change /veh NKD1 (11759106_at) / RFU SRD5A1 (11742802_a_at) / Fold change /veh SRD5A1 (11742802_a_at) / RFU TPSAB1 /// TPSB2 (11721975_s_at) / Fold change /veh TPSAB1 /// TPSB2 (11721975_s_at) / RFU GSTM3 (11746129_a_at) / Fold change /veh GSTM3 (11746129_a_at) / RFU IL23R (11737362_x_at) / Fold change /veh IL23R (11737362_x_at) / RFU TMEM51 (11727254_a_at) / Fold change /veh TMEM51 (11727254_a_at) / RFU PIWIL2 (11732686_x_at) / Fold change /veh PIWIL2 (11732686_x_at) / RFU ORM1 (11744905_x_at) / Fold change /veh ORM1 (11744905_x_at) / RFU CCDC152 (11743942_at) / Fold change /veh CCDC152 (11743942_at) / RFU ECM1 (11717891_a_at) / Fold change /veh ECM1 (11717891_a_at) / RFU IL23R (11748794_a_at) / Fold change /veh IL23R (11748794_a_at) / RFU TNFAIP8L3 (11732012_x_at) / Fold change /veh TNFAIP8L3 (11732012_x_at) / RFU MBOAT4 (11741988_at) / Fold change /veh MBOAT4 (11741988_at) / RFU 11764193_at / Fold change /veh 11764193_at / RFU TMEM53 (11763286_at) / Fold change /veh TMEM53 (11763286_at) / RFU MAGEB2 (11727129_at) / Fold change /veh MAGEB2 (11727129_at) / RFU TMEM200A (11744735_a_at) / Fold change /veh TMEM200A (11744735_a_at) / RFU CCDC152 (11751479_a_at) / Fold change /veh CCDC152 (11751479_a_at) / RFU FAM211A (11726209_a_at) / Fold change /veh FAM211A (11726209_a_at) / RFU RGS16 (11746705_a_at) / Fold change /veh RGS16 (11746705_a_at) / RFU VCAN (11755009_s_at) / Fold change /veh VCAN (11755009_s_at) / RFU RHOB (11743442_s_at) / Fold change /veh RHOB (11743442_s_at) / RFU RGS16 (11720943_a_at) / Fold change /veh RGS16 (11720943_a_at) / RFU RGS16 (11720944_at) / Fold change /veh RGS16 (11720944_at) / RFU, VPS4B / Fold change vs veh, VPS4B / RFU, CREB1 / Fold change vs veh, CREB1 / RFU, DNAJC13 / Fold change vs veh, DNAJC13 / RFU, GNAQ / Fold change vs veh, GNAQ / RFU, CDK5R1 / Fold change vs veh, CDK5R1 / RFU, ZRANB3 / Fold change vs veh, ZRANB3 / RFU, CUL4A / Fold change vs veh, CUL4A / RFU, CCNY / Fold change vs veh, CCNY / RFU, UFL1 / Fold change vs veh, UFL1 / RFU, COG3 / Fold change vs veh, COG3 / RFU, DIAPH2 / Fold change vs veh, DIAPH2 / RFU, SKA2 / Fold change vs veh, SKA2 / RFU, AFF3 / Fold change vs veh, AFF3 / RFU, LMF1 / Fold change vs veh, LMF1 / RFU, IPO11 / Fold change vs veh, IPO11 / RFU, DFFB / Fold change vs veh, DFFB / RFU, FOXP1 / Fold change vs veh, FOXP1 / RFU, CARD8 / Fold change vs veh, CARD8 / RFU, STRN3 / Fold change vs veh, STRN3 / RFU, ADK / Fold change vs veh, ADK / RFU, RASSF2 / Fold change vs veh, RASSF2 / RFU, WIPF1 / Fold change vs veh, WIPF1 / RFU, LARP1B / Fold change vs veh, LARP1B / RFU, RASA1 / Fold change vs veh, RASA1 / RFU, RB1 / Fold change vs veh, RB1 / RFU, PPFIA1 / Fold change vs veh, PPFIA1 / RFU, MAT2A / Fold change vs veh, MAT2A / RFU, CCT5 / Fold change vs veh, CCT5 / RFU, WDR92 / Fold change vs veh, WDR92 / RFU, CUX1 / Fold change vs veh, CUX1 / RFU, TTC7A / Fold change vs veh, TTC7A / RFU, TMEM135 / Fold change vs veh, TMEM135 / RFU, DEPTOR / Fold change vs veh, DEPTOR / RFU, CPM / Fold change vs veh, CPM / RFU, DNAJB6 / Fold change vs veh, DNAJB6 / RFU, CACNA2D3 / Fold change vs veh, CACNA2D3 / RFU, DTX4 / Fold change vs veh, DTX4 / RFU, TFCP2 / Fold change vs veh, TFCP2 / RFU, GMCL1 /// GMCL1P1 / Fold change vs veh, GMCL1 /// GMCL1P1 / RFU, AEBP2 / Fold change vs veh, AEBP2 / RFU, SNHG1 /// SNORD22 /// SNORD25 /// SNORD26 /// SNORD27 /// SNORD28 /// SNORD29 /// SNORD31 / Fold change vs veh, SNHG1 /// SNORD22 /// SNORD25 /// SNORD26 /// SNORD27 /// SNORD28 /// SNORD29 /// SNORD31 / Fold change (Aza/veh), C12orf56 (ProbeSet 11735607_a_at) / Fold change (ACY-1035/veh), C12orf56 (ProbeSet 11735607_a_at) / Fold change (Aza/veh), FGFR1OP (ProbeSet 11751329_s_at) / Fold change (ACY-1035/veh), FGFR1OP (ProbeSet 11751329_s_at) / Fold change (Aza/veh), VPS36 (ProbeSet 11739960_a_at) / Fold change (ACY-1035/veh), VPS36 (ProbeSet 11739960_a_at) / RFU SYPL1 (11715823_x_at) / Fold change /veh SYPL1 (11715823_x_at) / RFU IGFBP7 (11715501_s_at) / Fold change /veh IGFBP7 (11715501_s_at) / RFU REEP3 (11722064_at) / Fold change /veh REEP3 (11722064_at) / RFU IGLL1 (11728026_x_at) / Fold change /veh IGLL1 (11728026_x_at): dose or concentration left out as unconfirmed
Details: MV-4-11 cells, 48 hours

How did the “Fold change /veh FAM211A (11726209_a_at)” value turn out when `Nc1ccc(-c2cccs2)cc1NC(=O)c1ccc2c(c1)cc(C1CC1)n2CCN1CCOCC1` [ACY-1035] was run?
The value was 1.04.
